Measurements: patent US8664407B2, “Chemical linkers with single amino acids and conjugates thereof” (Medarex, LLC, priority 2007, dated 2014)

Key:
[1] = biological target: T1, bovine spleen cathepsin B (Bos taurus, UniProt P07688); experiment: Cathepsin B mediated cleavage of single amino acid linkers (RP-HPLC, A340); format: biochemical; details: cysteine modified compound, activated cathepsin B, pH 5.0, 37° C.
T1 construct: bovine spleen cathepsin B (Sigma product code C-6286) was prepared by dissolving lyophilized solid; purchased Sigma C-6286; host or cells: bovine spleen (tissue-derived)
Description: (§1) A panel of single amino acid compounds, each differing with respect to amino acid composition but of otherwise similar structure, was assayed for cathepsin B activity. The following compounds were tested: compounds A,B,C,D,E and F. The appearance of cathepsin B-mediated products was monitored by application to RP-HPLC with quantitation of drug products by their absorbance at 340 nm.
(§2) Cathepsin B Enzyme Assay: A stock solution of bovine spleen cathepsin B (Sigma product code C-6286) was prepared by dissolving lyophilized solid (6 mg at 56% protein) in 25 mM sodium acetate/1 mM EDTA pH 5.0 buffer (10 mL). Enzyme activation was accomplished by mixing the stock solution (50 uL) with activation buffer (100 ul) comprised of 30 mM DTT/15 mM EDTA, followed by incubation at room temperature for 15 minutes. The activated cathepsin B was diluted 1:1 with a solution of 25 mM sodium acetate/1 mM EDTA, pH 5.0 prior to use. To assay for drug release, cysteine modified compound (4 uL of 2.5 mM solution in DMSO) was added to 25 mM sodium acetate/1 mM EDTA pH 5.0 buffer (86 uL) and activated cathepsin B (10 uL at 3.6 U/mL). Samples were incubated at 37° C. for appropriate time points and stopped with methanol (100 uL).
(§3) Compounds samples (40 uL) were applied to a Waters 2795 HPLC system fitted with a reverse phase column (Waters Nova-pak C18, 3.9×150 mm column, product code WAT086344). Sample chromatography was accomplished using a dual mobile phase system comprised of water/0.1% TFA (A buffer) and acetonitrile/0.1% TFA (B buffer) with a gradient elution of 10-100% B buffer over 20 min at 1.0 mL/min. compounds were detected by its absorbance at 340 nm (A340).

[2] = test system: 786-O; experiment: In vivo study: 786-O tumor xenograft, toxin-conjugated anti-CD70 HuMAb 2H5; details: 0.03 μmol toxin dosage, IP, dosed on Day 0; CD70.1 antibody conjugates; 786-O tumors in male CB17.SCID mice
Description: 786-O (ATCC Accession No. CRL-1932) cells were expanded in vitro using standard laboratory procedures. Male CB17.SCID mice (Taconic, Hudson, N.Y.) between 6-8 weeks of age were implanted subcutaneously in the right flank with 2.5 million 786-O in 0.2 ml of PBS/Matrigel (1:1) per mouse. Mice were weighed and measured for tumors three dimensionally using an electronic caliper twice weekly after implantation. Tumor volumes were calculated as height×width×length. Mice with tumors averaging 200 mm^3 were randomized into treatment groups. The mice were dosed intraperitoneally with PBS vehicle, toxin-conjugated isotype control antibody or toxin-conjugated anti-CD70 HuMAb 2H5 on Day 0. Each group contained 8 mice.
FIGS. 1, 2, 5, and 6 show the mean tumor volume versus days past dosing and FIGS. 3, 4, 7, and 8 show the median tumor volume versus days past dosing (0.03 μmol—FIGS. 1, 3, 5, and 7; 0.005 μmol—FIGS. 2, 4, 6, and 8).

[3] = biological target: T2, cathepsin B (Bos taurus, UniProt P07688); experiment: Cathepsin B mediated cleavage of single amino acid linkers (RP-HPLC, A340); format: biochemical, bovine; details: bovine, activated bovine spleen cathepsin B (isolated enzyme), cysteine modified compound, pH 5.0, 37° C., read-out: Approx. substrate half-life (converted)
T2 construct: bovine spleen cathepsin B (Sigma product code C-6286) was prepared by dissolving lyophilized solid; purchased Sigma C-6286; host or cells: bovine spleen (tissue-derived)
Description: as §1, §2, §3

`CN1CCN(C(=O)Oc2cc3c(c4ccccc24)[C@H](CCl)CN3C(=O)c2cc3c4c(ccc3[nH]2)N(C(=O)c2ccc(NC(=O)[C@H](CCCNC(N)=O)NC(=O)CCCCCN3C(=O)C=CC3=O)cc2)CC4)CC1` [Compound C] was tested, and the “Cathepsin B cleavage” value [1] was “No” and the “Efficacy (tumor volume versus days past dosing), descending order” value [2] was “Compound E>Compound F>Compound A>Compound C, Compound D>Compound B>Compound G”.

`CN1CCN(C(=O)Oc2cc3c(c4ccccc24)[C@H](CCl)CN3C(=O)c2cc3cc(NC(=O)c4ccc(NC(=O)[C@H](CCC(=O)O)NC(=O)CCCCCN5C(=O)C=CC5=O)cc4)ccc3[nH]2)CC1` [Compound F] was tested, and the “Cathepsin B cleavage” value [1] was “No” and the “Efficacy (tumor volume versus days past dosing), descending order” value [2] was “Compound E>Compound F>Compound A>Compound C, Compound D>Compound B>Compound G”.

In the case of `CN1CCN(C(=O)Oc2cc3c(c4ccccc24)[C@H](CCl)CN3C(=O)c2cc3cc(NC(=O)c4ccc(NC(=O)[C@H](CO)NC(=O)CCCN5C(=O)C=CC5=O)cc4)ccc3[nH]2)CC1` [Compound D], the “Cathepsin B cleavage” value [1] is reported as “No”, the “Cathepsin B cleavage” value ([1]; listed as compound D) is reported as “cleaved by cathepsin B” and the “Efficacy (tumor volume versus days past dosing), descending order” value [2] is reported as “Compound E>Compound F>Compound A>Compound C, Compound D>Compound B>Compound G”.

For `CN1CCN(C(=O)Oc2cc3c(c4ccccc24)[C@H](CCl)CN3C(=O)c2cc3cc(NC(=O)c4ccc(NC(=O)[C@H](CCCCN)NC(=O)CCCCCN5C(=O)C=CC5=O)cc4)ccc3[nH]2)CC1` [Compound E], the “Cathepsin B cleavage” value [1] was “Yes”, the half-life at 100 µM [3] was ~4 h and the “Efficacy (tumor volume versus days past dosing), descending order” value [2] was “Compound E>Compound F>Compound A>Compound C, Compound D>Compound B>Compound G”.

With `CN1CCN(C(=O)Oc2cc3c(c4ccccc24)[C@H](CCl)CN3C(=O)c2cc3cc(NC(=O)c4ccc(NC(=O)[C@H](CCCNC(N)=O)NC(=O)CCCCCN5C(=O)C=CC5=O)cc4)ccc3[nH]2)CC1` [Compound A] the “Cathepsin B cleavage” value [1] was “Yes”, the “Cathepsin B cleavage” value ([1]; listed as compound A) was “cleaved by cathepsin B” and the half-life at 100 µM [3] was ~24 h. For the same compound, the “Efficacy (tumor volume versus days past dosing), descending order” value [2] was “Compound E>Compound F>Compound A>Compound C, Compound D>Compound B>Compound G”.

In the case of `CN1CCN(C(=O)Oc2cc3c(c4ccccc24)[C@H](CCl)CN3C(=O)c2cc3cc(NC(=O)c4ccc(NC(=O)[C@H](CCCNC(N)=O)NCCNC(=O)CCCCCN5C(=O)C=CC5=O)cc4)ccc3[nH]2)CC1` [Compound B], the “Cathepsin B cleavage” value [1] is reported as “No” and the “Efficacy (tumor volume versus days past dosing), descending order” value [2] is reported as “Compound E>Compound F>Compound A>Compound C, Compound D>Compound B>Compound G”.

`CN1CCN(C(=O)Oc2cc3c(c4ccccc24)[C@H](CCl)CN3C(=O)c2cc3cc(NC(=O)c4ccc(NCC(=O)NCCNC(=O)CCCN5C(=O)C=CC5=O)cc4)ccc3[nH]2)CC1` [Compound G] was tested, and the “Efficacy (tumor volume versus days past dosing), descending order” value [2] was “Compound E>Compound F>Compound A>Compound C, Compound D>Compound B>Compound G”.
